Experimental data taken from ChEMBL document CHEMBL5465560, “Selectivity Literature for EUbOPEN Chemogenomic Library” (2024).
Values belong to the molecule of their own block, whether it stands above or below them.

Tests used:
[1] = biological target: CDK8/Cyclin C (Homo sapiens) (UniProt P49336+P24863); test: Selectivity interaction (LanthaScreen Eu Kinase Binding Assay) EUB0001632a CDK8; format: protein-complex assay; conditions: at 10 µM
[2] = biological target: LIM domain kinase 2 (Homo sapiens) (UniProt P53671); conditions: at 10 µM
LIM domain kinase 2 (Homo sapiens), sequence (P53671 whole entry, looked up, the tested form may be a part, canonical isoform): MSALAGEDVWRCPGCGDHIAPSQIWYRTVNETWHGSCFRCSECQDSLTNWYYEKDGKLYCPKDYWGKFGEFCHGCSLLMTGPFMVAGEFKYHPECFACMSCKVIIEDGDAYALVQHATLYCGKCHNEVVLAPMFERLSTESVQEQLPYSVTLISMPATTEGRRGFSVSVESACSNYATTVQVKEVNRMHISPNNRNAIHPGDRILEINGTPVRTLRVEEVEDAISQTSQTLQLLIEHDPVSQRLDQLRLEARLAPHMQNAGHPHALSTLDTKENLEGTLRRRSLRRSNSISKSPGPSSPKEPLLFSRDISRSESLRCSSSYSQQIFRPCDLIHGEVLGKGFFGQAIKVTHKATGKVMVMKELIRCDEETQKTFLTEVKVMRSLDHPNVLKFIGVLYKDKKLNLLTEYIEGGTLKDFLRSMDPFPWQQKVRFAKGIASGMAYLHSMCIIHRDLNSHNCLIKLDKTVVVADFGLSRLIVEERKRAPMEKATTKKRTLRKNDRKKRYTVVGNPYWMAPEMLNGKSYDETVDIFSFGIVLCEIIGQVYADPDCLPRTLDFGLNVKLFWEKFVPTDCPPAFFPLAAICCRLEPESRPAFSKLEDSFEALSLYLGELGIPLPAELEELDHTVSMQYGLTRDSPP

[3] = biological target: Casein kinase I isoform epsilon (Homo sapiens, UniProt P49674); test: Selectivity interaction (ProQinase) EUB0000171b CSNK1E
Casein kinase I isoform epsilon, sequence (P49674 whole entry, looked up, canonical isoform): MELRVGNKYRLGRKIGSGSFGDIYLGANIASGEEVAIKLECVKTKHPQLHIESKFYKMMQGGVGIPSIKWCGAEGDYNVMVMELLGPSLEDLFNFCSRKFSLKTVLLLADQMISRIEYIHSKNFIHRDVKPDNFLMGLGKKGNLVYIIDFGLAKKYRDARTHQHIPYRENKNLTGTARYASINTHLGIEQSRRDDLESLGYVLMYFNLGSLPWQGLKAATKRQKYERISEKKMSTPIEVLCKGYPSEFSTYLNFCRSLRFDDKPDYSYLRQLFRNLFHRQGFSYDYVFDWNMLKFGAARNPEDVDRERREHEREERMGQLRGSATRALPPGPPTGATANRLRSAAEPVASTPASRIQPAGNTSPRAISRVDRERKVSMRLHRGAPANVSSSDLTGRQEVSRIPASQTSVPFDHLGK

[4] = biological target: MAP kinase-activated protein kinase 2 (Homo sapiens, UniProt P49137); test: Selectivity interaction (KinomeScan (DiscoverX)) EUB0000695a MAPKAPK2; conditions: at 100 nM
MAP kinase-activated protein kinase 2, sequence (P49137 whole entry, looked up): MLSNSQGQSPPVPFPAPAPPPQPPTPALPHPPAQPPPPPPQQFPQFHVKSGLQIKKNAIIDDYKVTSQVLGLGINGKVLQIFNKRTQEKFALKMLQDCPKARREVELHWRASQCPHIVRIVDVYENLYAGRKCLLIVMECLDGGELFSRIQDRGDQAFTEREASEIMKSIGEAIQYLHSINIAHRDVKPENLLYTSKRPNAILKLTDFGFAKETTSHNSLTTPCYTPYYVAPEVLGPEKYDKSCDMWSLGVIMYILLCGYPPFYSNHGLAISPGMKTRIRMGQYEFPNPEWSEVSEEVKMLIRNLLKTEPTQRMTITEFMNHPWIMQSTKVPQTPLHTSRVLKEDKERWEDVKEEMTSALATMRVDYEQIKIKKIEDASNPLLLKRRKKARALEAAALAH

[5] = biological target: T1, Bone morphogenetic protein receptor type-2 (Homo sapiens) (UniProt Q13873); test: Selectivity interaction (KinomeScan (DiscoverX)) EUB0000595a BMPR2; conditions: at 10 µM
T1 sequence (whole entry): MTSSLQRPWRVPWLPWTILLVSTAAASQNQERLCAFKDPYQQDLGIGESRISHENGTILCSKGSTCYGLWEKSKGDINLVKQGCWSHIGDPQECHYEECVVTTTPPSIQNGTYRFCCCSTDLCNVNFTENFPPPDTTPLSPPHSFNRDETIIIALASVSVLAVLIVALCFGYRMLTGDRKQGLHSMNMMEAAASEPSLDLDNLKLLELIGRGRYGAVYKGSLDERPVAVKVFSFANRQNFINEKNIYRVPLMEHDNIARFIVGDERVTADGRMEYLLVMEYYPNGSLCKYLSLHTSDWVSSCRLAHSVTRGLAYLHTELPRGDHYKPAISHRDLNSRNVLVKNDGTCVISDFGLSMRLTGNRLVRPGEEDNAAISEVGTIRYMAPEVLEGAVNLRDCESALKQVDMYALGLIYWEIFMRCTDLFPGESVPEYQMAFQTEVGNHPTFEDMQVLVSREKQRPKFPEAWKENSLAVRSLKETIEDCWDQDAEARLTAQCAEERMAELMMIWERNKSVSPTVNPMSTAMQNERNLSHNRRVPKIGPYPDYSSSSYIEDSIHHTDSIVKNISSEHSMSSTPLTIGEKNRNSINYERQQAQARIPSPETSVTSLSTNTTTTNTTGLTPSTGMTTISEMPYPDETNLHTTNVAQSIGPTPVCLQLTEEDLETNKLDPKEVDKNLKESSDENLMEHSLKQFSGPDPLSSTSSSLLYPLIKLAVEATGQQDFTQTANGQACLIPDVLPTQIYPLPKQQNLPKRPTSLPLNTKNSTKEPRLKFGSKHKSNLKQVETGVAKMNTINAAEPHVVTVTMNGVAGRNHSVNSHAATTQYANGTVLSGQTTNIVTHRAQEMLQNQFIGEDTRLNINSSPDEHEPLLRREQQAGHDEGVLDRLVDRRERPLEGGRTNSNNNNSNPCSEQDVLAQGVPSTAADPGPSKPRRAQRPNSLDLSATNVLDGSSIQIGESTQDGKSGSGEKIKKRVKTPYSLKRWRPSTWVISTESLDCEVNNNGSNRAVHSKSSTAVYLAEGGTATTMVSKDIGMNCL

[6] = biological target: T2, Serine/threonine-protein kinase Nek11 (Homo sapiens) (UniProt Q8NG66); test: Selectivity interaction (KinomeScan (DiscoverX)) EUB0000045b NEK11
T2 sequence (whole entry): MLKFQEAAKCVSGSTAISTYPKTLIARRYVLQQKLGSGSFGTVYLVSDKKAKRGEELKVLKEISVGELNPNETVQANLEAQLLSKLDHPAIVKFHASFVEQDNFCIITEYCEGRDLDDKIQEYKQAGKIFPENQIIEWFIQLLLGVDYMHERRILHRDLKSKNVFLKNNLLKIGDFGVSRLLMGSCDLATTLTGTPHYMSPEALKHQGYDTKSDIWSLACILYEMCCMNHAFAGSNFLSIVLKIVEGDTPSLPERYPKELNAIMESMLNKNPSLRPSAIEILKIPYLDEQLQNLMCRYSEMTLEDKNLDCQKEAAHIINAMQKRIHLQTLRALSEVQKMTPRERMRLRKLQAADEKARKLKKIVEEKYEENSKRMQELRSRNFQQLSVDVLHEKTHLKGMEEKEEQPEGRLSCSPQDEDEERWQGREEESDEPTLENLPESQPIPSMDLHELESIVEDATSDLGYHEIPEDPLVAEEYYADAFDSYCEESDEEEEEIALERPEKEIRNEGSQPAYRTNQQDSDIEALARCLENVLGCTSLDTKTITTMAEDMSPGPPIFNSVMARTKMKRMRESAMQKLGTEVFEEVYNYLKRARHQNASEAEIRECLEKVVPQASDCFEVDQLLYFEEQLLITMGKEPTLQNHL

[7] = biological target: Transient receptor potential cation channel subfamily M member 6 (Homo sapiens) (UniProt Q9BX84); conditions: at 10 µM
Transient receptor potential cation channel subfamily M member 6 (Homo sapiens), sequence (Q9BX84 whole entry): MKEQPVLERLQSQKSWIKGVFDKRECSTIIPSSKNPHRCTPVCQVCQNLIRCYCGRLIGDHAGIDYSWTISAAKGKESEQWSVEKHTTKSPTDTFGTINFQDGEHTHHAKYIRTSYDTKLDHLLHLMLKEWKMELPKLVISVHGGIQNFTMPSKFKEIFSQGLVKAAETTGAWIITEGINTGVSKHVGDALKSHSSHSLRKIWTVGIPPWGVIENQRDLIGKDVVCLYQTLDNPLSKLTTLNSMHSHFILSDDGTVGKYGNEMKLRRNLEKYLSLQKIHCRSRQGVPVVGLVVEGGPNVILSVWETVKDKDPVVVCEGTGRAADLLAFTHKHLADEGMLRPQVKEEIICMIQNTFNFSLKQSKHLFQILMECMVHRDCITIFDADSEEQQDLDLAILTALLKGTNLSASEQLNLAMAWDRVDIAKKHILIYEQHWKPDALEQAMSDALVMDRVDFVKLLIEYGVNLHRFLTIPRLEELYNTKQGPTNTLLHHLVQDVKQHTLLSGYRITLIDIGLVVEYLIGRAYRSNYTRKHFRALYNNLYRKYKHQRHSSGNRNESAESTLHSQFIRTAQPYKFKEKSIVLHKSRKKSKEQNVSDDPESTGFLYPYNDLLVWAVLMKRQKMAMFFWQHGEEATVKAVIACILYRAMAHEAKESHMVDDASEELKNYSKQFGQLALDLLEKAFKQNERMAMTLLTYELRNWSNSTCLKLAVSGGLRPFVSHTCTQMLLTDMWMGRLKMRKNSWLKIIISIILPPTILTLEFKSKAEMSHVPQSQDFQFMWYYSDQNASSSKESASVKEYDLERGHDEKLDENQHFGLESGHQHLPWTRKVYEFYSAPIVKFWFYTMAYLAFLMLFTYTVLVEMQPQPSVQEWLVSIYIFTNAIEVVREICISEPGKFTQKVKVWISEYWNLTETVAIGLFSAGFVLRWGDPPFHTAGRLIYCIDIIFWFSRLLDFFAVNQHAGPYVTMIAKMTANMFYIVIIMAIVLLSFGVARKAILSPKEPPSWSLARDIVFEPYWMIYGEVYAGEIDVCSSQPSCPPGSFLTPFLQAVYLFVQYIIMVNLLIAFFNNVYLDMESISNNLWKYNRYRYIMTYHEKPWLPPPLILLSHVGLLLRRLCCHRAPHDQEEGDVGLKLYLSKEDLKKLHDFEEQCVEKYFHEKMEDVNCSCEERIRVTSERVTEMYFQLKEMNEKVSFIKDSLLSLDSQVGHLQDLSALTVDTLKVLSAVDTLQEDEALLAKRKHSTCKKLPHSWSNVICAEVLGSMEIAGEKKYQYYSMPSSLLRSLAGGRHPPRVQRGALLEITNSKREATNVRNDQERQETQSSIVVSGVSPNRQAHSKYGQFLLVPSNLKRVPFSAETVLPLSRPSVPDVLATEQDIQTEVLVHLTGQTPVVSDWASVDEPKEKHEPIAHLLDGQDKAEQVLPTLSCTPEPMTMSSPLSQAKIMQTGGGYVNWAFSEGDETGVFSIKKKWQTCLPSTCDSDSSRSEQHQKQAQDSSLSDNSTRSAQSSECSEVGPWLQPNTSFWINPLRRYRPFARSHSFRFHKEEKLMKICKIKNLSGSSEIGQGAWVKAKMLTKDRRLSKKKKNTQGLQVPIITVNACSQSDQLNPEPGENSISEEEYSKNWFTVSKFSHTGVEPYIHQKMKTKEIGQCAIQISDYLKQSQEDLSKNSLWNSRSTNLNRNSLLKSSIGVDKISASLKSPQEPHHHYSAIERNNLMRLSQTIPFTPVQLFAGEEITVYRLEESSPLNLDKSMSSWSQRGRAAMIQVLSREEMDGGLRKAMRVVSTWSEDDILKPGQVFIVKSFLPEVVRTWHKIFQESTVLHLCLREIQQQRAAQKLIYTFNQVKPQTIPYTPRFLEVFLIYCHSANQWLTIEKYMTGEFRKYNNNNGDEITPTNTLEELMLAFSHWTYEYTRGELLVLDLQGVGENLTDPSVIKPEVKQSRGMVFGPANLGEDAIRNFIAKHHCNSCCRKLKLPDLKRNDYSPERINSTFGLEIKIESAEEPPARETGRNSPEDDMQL

[8] = biological target: T3, Serine/threonine-protein kinase MAK (Homo sapiens) (UniProt P20794); test: Selectivity interaction (KinomeScan (DiscoverX)) EUB0001619a MAK; conditions: at 1 µM
T3 sequence (whole entry): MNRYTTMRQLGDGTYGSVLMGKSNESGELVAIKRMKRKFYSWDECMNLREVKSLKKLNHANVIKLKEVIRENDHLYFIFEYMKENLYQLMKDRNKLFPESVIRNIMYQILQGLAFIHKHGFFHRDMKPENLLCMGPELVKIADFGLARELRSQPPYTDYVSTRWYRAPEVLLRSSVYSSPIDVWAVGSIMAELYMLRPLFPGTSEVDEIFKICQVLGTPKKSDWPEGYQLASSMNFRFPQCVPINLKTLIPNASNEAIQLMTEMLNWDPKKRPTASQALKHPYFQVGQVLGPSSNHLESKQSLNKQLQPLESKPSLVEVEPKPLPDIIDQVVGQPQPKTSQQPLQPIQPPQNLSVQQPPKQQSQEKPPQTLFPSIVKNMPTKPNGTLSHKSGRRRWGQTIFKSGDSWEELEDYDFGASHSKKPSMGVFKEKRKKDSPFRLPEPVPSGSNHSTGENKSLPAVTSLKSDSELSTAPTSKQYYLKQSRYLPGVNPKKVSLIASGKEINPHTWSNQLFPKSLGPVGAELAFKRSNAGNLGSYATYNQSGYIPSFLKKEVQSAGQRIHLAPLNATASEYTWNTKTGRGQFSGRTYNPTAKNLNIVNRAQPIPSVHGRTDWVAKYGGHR

% of inhibition [1]: 17.1%
SMILES: Cn1cc(-n2cnc3c(NCc4nc5cc(Cl)c(Cl)cc5[nH]4)nc(N4CCOCC4)nc32)cn1

% of control [2]: 100%
SMILES: CCN(CC)CCCCNc1ncc2cc(-c3cc(OC)cc(OC)c3)c(NC(=O)NC(C)(C)C)nc2n1

% of control ([3]; at 1 µM): 57% | % of control ([3]; at 5 µM): 21%
SMILES: C=CC(=O)Nc1cccc(C(=O)Nc2ccc(Nc3cc(-c4[nH]c(SC)nc4C)ccn3)cc2)c1

SMILES: Cc1cc(F)c(C(=O)Nc2cccc(-c3nncn3C(C)C)n2)cc1-n1cnc(C2CC2)c1
% of control [4]: 57%

SMILES: COCC(=O)NC/C=C/c1ccc2ncnc(Nc3ccc(Oc4ccc(C)nc4)c(C)c3)c2c1 [CP-724714]
% of control [5]: 74%

SMILES: C=CC(=O)Nc1cc(-n2c(=O)ccc3cnc4ccc(-c5ccc(NS(C)(=O)=O)cc5)cc4c32)ccc1C
% of control ([6]; at 1 µM): 100% | % of control ([6]; at 10 µM): 100%

SMILES: Cc1cc([C@@H](C)Nc2ccccc2C(=O)O)c2nc(N3CCOCC3)cc(=O)n2c1 [AZD-6482]
% of control [7]: 100%

SMILES: N#Cc1cccc(-c2c[nH]c3ncnc(N4CCOCC4)c23)c1
% of control [8]: 94%
